Assays:
[1] = tested on: H157 (non-small cell lung carcinoma) cells; assay: 96 hr MTS dose response experiment in H157 cells; assay type: cell-based, human; details: a range means IC50 lies between the two tested concentrations
Description: (§1) MTS dose response experiments in H157, H82, and A549 cells following a 96 hr exposure with select compounds were performed. MTS is a standard colorimetric assay used for measuring metabolic activity in cells. MTS experiments were performed by CellTiter 96® AQueuos One Solution Cell Proliferation Assay from Promega Corporation. Briefly, the cells were seeded at 3000 cells/well on a 96 well tissue culture plate containing 100 ul of medium/well and allowed to attach overnight. The medium was then aspirated and replaced with 100 ul of fresh medium containing the appropriate concentration of the compound being tested and incubated for 96 hrs at 37° C. and 5% CO2. Compounds are routinely tested at concentrations ranging from 0.1 micromolar to 50 micromolar. Wells not containing the test compound were present and used as a control. Following treatment, 20 ul of MTS reagent was added to each well and incubated at 37° C. for 1.5 hrs. The absorbance of each well was then measured at 490 nm and used to determine the metabolic activity of the cells in the presence of the test compound, relative to the control. IC50 values for the test compounds were extracted based on the results.
(§2) Note that the results for a 72 hr exposure in addition to the 96 hr exposure are shown for compound 49-TDW-29C in the H157 cells. […] FIG. 1 depicts the results of a 96 hr MTS dose response experiments for compound 46-TDW-23c in H157, A549, H82 and Beas2B cells. FIG. 2 depicts the results of a 96 hr MTS dose response experiments for compound 49-TDW-9 in H157, A549, H82 and Beas2B cells. FIG. 3 depicts the results of a 96 hr MTS dose response experiments for compound 42-TDW-21c in H157, A549, H82 and Beas2B cells. FIG. 4 depicts the results of a 96 hr MTS dose response experiments for compound 46-TDW-19c in H157, A549, H82 and Beas2B cells. FIG. 5 depicts the results of a 96 hr MTS dose response experiments for compound 49-TDW-17c in H157, A549, H82 and Beas2B cells. FIG. 6 depicts the results of a 96 hr MTS dose response experiments for compound 40-TDW-37 in H157, A549, H82 and Beas2B cells. FIG. 7 depicts the results of a 96 hr MTS dose response experiments for compound 42-TDW-4 in H157, A549, H82 and Beas2B cells. FIG. 8 depicts the results of a 96 hr MTS dose response experiments for compound 49-TDW-29c in H157, A549, H82 and Beas2B cells. FIG. 9 depicts the results of a 96 hr MTS dose response experiments for compound 49-TDW-32c in H157, A549, H82 and Beas2B cells. FIG. 10 depicts the results of a 96 hr MTS dose response experiments for compound 46-TDW-35c in H157, A549, H82 and Beas2B cells. FIG. 11 depicts the results of a 96 hr MTS dose response experiments for compound 39-TDW-3 in H157, A549, and H82 cells. FIG. 12 depicts the results of a 96 hr MTS dose response experiments for compound 39-TDW-12c in […], and A549 cells. FIG. 13 depicts the results of a 96 hr MTS dose response experiments for compound 39-TDW-20c in H157, and H82 cells. FIG. 14 depicts the results of a 96 hr MTS dose response experiments for compounds 39-TDw-47c and 39-TDW-43 in H157 cells. FIG. 15 depicts the results of a 96 hr MTS dose response experiments for compounds 42-TDW-9, 42-TDW-4c/6, 40-TDW-35, 42-TDW-38 and BENSpm in H157 cells. FIG. 16 depicts the results of a 96 hr MTS dose response experiments for compounds 46-TDW-34c, 42-TDW-12, 40-TDW-48, 46-TDW-44c and BENSpm in H157 cells. FIG. 17 depicts the results of a 96 hr MTS dose response experiments for compounds 42-TDW-20c, 46-TDW-22, 46-TDW-39, 49-TDW-29c and BENSpm in H157 cells. FIG. 18 depicts the results of a 96 hr MTS dose response experiments for compounds 39-TDW-43, 42-TDW-48c, 46-TDW-9, 46-TDW-23c and BENSpm in H157 cells. FIG. 19 depicts the results of a 96 hr MTS dose response experiments for compounds 42-TDW-35c, 46-TDW-44 and BENSpm in H157 cells.

[2] = tested on: H82 (small lung cell carcinoma) cells; assay: 96 hr MTS dose response experiments in H82 cells; assay type: cell-based, human
Description: as §1, §2

A549 cells = assay: 96 hr MTS dose response experiments in A549 cells; assay type: cell-based; details: Homo sapiens, 96 hr exposure
Description: as §1
Note that the results for a 72 hr exposure in addition to the 96 hr exposure are shown for compound 49-TDW-29C in the H157 cells. […]

H82 cells = assay: Polyamine levels in H82 cells following treatment; assay type: cell-based, human; details: 24 hr
Description: (§3) Putrescine, spermidine, and spermine polyamine levels in H157 and H82 cells following exposure to select compounds were performed. Polyamine levels were determined using the precolumn dansylation labeling, reverse-phase high-pressure liquid chromatography method as described by Kabra et al., J. Chromotography, 380:19 (1986). The results are show in Tables 6 and 11 for H157 and H82 cells respectively. The compound identifier, treatment concentration, observed polyamine level, and exposure time are listed in columns 1, 2, 3, and 4 respectively. Polyamine levels are reported as increased (inc), decrease (dec), or no change (N/C). In some case the specific levels of putrescine, spermidine, and/or spermine are listed.

[3] = tested on: H157 (non-small cell lung carcinoma) cells; assay: Polyamine levels in H157 cells following treatment; assay type: cell-based, human; details: 24 hr
Description: as §3

[4] = tested on: P19 embryonal carcinoma cells; details: P19 embryonal carcinoma cells treated; cited from earlier work
[5] = Homo sapiens, NCI-H157, 96 hr exposure
[6] = Homo sapiens, NCI-H82, 96 hr exposure
[7] = 10 uM, inc = increased, dec = decrease, N/C = no change

CCNCCCNCCCNCCCNCc1ccccc1-c1ccccc1 [39-TDW-20c]
IC50 [1, 5]: 2.76 to 5.52 µM
IC50 [2, 6]: 2.76 to 5.52 µM
IC50 (A549 cells): > 10 µM

CC1(C)C2CCC(CNCCCNCCCNCCCN)C1C2 (stereo not drawn) [ZQW-35c]
IC50 [1, 5]: 1 to 10 µM
IC50 [2, 6]: 1 to 10 µM

c1ccc(-c2ccccc2CNCCCNCCCNCCCNCc2ccccc2-c2ccccc2)cc1 [39-TDW-3]
IC50 [1, 5]: 0.53 to 2.7 µM
IC50 [2, 6]: 0.53 to 2.7 µM
IC50 (A549 cells): 1 to 10 µM

CCSCCNCCCNCCCNCCCNCCSCC [49-TDW-15]
IC50 ([1]; 96 hr exposure): 0.5 to 1 µM
IC50 ([2]; 96 hr exposure): 10 to 50 µM

CC(C)(C)CCNCCCNCCCNCCCNCC(F)(F)F [40-TDW-19]
IC50 [1, 5]: 5.3 to 26.5 µM
IC50 [2, 6]: 5 to 10 µM

CCNCCCNCCCNCCCNCCCCc1cc2cccc3ccc4cccc1c4c32 [40-TDW-23]
IC50 ([1]; 96 hr exposure): 10 to 50 µM
IC50 ([2]; 96 hr exposure): 10 to 50 µM

C=C(CNCC)CNCCCNCCCNCC [ZQW-46]
IC50 [1, 5]: 13 µM
Polyamine Level (H82 cells; 5-uM): dec
Polyamine Level [3, 7]: N/C

CC1(C)C2CCC(CNCCCNCCCNCCCNCC3CCC4CC3C4(C)C)C1C2 (stereo not drawn) [ZQW-35]
IC50 [1, 5]: 1 to 10 µM
IC50 [2, 6]: < 1 µM
Polyamine Level ([3]; 4 uM): N/C

C=C(C)NCCCNCCCNCCCN [ZQW-35-7c]
IC50 [1, 5]: > 10 µM
Polyamine Level (H82 cells; 10 uM): N/C
Polyamine Level ([3]; 5 uM): slight dec
Polyamine Level [3, 7]: dec

C=C(C)NCCCNCCCNCCCNC(=C)C [ZQW-35-8]
IC50 [1, 5]: > 10 µM
Polyamine Level (H82 cells; 10 uM): N/C, slight
Polyamine Level [3, 7]: N/C

CCNCCCNCCCNCCCNCC1CCC2CC1C2(C)C (stereo not drawn) [ZQW-36]
IC50 [1, 5]: 1 to 10 µM
IC50 [2, 6]: 1 to 10 µM
Polyamine Level [3, 7]: slight dec
Polyamine Level, Spm ([3]; spermine (Spm), 10 uM): inc

C=C(CNCCCNCC)CNCCCNCC [ZQW-44]
IC50 [1, 5]: > 13 µM
Polyamine Level (H82 cells; 50 uM): inc
Polyamine Level [3, 7]: N/C

C=C(C)NCCCNCCCNCCCNCC [ZQW-35-8c]
IC50 [1, 5]: 1 to 10 µM
Polyamine Level (H82 cells; 10 uM): N/C, slight
Polyamine Level [3, 7]: dec
Polyamine Level, spd, spm ([3]; spermidine and spermine, 10 uM): 1 g dec

N[C@@H]1C[C@H]1c1ccccc1 [tranylcypromine, (1R,2S)-2-phenylcyclopropan-1-amine]
effect on transcription of Egr1 and Oct4 genes [4]: transcriptional de-repression of the Egr1 and Oct4 genes

Source: patent publication US8148577B2, “Polyamines useful as anti-parasitic and anti-cancer therapeutics and as lysine-specific demethylase inhibitors” (The Johns Hopkins University, priority 2005, dated 2012)
